According to PMC7261835, “New Brilliant Blue G Derivative as Pharmacological Tool in Retinal Surgery” (Frontiers in Pharmacology, 2020):

Key:
[1] = tested on: purinergic ionotropic P2X7 receptor; design: method as in Bartlett et al., 2014; settings: ref Bartlett et al., 2014; cited from earlier work
[2] = tested on: proteins (fibronectin proteolytic fragment 45 kDa, E. coli beta-galactosidase, bovine serum albumin, chicken ovalbumin, equine cytochrome C); assay: Dye protein affinity assay: SDS-PAGE staining intensity, densitometry; format: binding; settings: SDS-page protein bands, dyes 0.025% in fixative; compared to BBG and Me-BBG; p < 0.05
Protocol: In order to have the same dye/protein molar ratio for dye protein affinity assay, a set of molecular weight standards was obtained by mixing 430 nmol of the following proteins: i. fibronectin proteolytic fragment 45 kDa; ii. E. coli beta-galactosidase 116.3 kDa; iii. bovine serum albumin 66.5 kDa; iv. chicken ovalbumin 42.7 kDa; v. equine cytochrome C 12.3 kDa. Polyacrylamide gel electrophoresis was carried out loading the molecular weight standard in a 9% precast gels (Biorad), as triplicates on separate lanes. Gel electrophoresis was carried out at 20V for 60–90 min in denaturing conditions. After runs, each lane was cut and soaked overnight in a different staining solution, consisting of dyes dissolved at 0.025% in gel fixative solution (40% methanol, 20% acetic acid). Thereafter, gel lanes were decolored in the fixative solution without dyes, until the background stain reached the minimum level compared to stained protein bands. Images were collected with a scanner at 300 dpi, 16M colors. Densitometric analysis was done using the software ImageJ ([Rueden et al., 2017]). LogD values (pH 7.4) were calculated in silico using ACD/Labs software (version 11.1 2008, ACD Labs). […]

[3] = Ex vivo model of vitreoretinal surgery, dye quantification in retina by HPLC; design: species or system swine; settings: porcine eye ex vivo, 40 µl of 0.05% PBB formulation, removed after 30 s, after ILM peeling
Text: (§1) Ex vivo model of vitreoretinal surgery has been previously reported for evaluation of indocyanine green ILM staining properties ([Nakamura et al., 2003]). We carried out on swine eyes the same procedure previously reported on primates, with slight modifications. The following formulations have been tested in the ex vivo model of vitreoretinal surgery: Brilliant PeelTM (0.025% Brilliant Blue G BBG; Fluoron, Ulm, Germany); ILM-BlueTM (0.025% Brilliant Blue G; Dutch Ophthalmic Research Center (International) […], Italy); View-ILM® (0.03% methyl-Brilliant Blue […], Ponte San Nicolò-Padova, Italy); PBB® (0.05% Pure benzyl-Brilliant Blue G; Alfa-Instruments, Casoria, Italy). […] The levels of the dye molecules were quantified by means of HPLC analysis. […] The dried residue was reconstituted in 100 μl of mobile phase by vortexing for 120 s, filtered again on 0.45 μm filters, and, finally, 10-20 μl aliquots were injected into the chromatographic apparatus (each sample was analyzed in triplicate). […] BBG, Me-BBG, and PBB® were analyzed using three different isocratic ternary mobile phases consisting of (A) acetonitrile, (B) methanol, and (C) triethylamine 0.3% (v/v) in water (pH adjusted to 3.0 with trifluoroacetic acid) with different proportions (A:B:C) as follows: BBG 49:5:46 (v/v/v); Me-BBG 54:5:41 (v/v/v); PBB® 62:5:33 (v/v/v). […]

[4] = Ex vivo model of vitreoretinal surgery, dye quantification in ILM by HPLC; design: species or system swine; settings: porcine eye ex vivo, 40 µl, 30 s
Text: as §1

SMILES | P2X7 receptor antagonism [1] | Protein binding quantified as staining intensity (% staining, % of control BBG) [2] | dye levels in the retina [3] | dye content in ILM compared to Brilliant Peel formulation (BBG) [4] | fold increase of ILM dye levels compared to Me-BBG (View ILM) formulation ([4]; p < 0.05)
CCOc1ccc(Nc2ccc(/C(=C3C=C/C(=[N+](/CC)Cc4cccc(S(=O)(=O)[O-])c4)C=C/3C)c3ccc(N(CC)Cc4cccc(S(=O)(=O)O)c4)cc3C)cc2)cc1 [Entry 1, Brilliant Blue G] | potent selective non-competitive antagonist | – | – | – | –
CCOc1ccc(N(Cc2ccccc2)c2ccc(C(=C3C=CC(=[N+](CC)Cc4cccc(S(=O)(=O)[O-])c4)C=C3C)c3ccc(N(CC)Cc4cccc(S(=O)(=O)O)c4)cc3C)cc2)cc1 [Entry 7, pure benzyl-Brilliant Blue G] | – | higher protein affinity (% staining) compared to BBG and Me-BBG | 52 ng/mg | higher, even though not statistical significant | 6.0 fold
